Laboratory results reported in the supplement of paper PMC10307832.

compound: CCn1c(-c2nonc2N)nc2c(C#CC(C)(C)O)ncc(OC[C@H]3CCCNC3)c21 + CC(C)C[C@H](NC(=O)[C@H](Cc1ccccc1)NC(=O)c1cnccn1)B(O)O [Bortezomib] (partner 0.002 µM); experiment: relative viability (nuclei count vs DMSO), 5 days (fraction); higher = more cells survive; settings: first compound 0.01 µM
Method in brief: (§1)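 Relative viability is defined as nuclei in treated wells over nuclei in vehicle wells. Duplicate plates were run and medians reported. Lung cancer cell lines in 1536-well plates were dosed by pin tool one day after seeding, with one drug or with a fixed anchor-drug dose plus five library-drug doses (not always all listed) in √10 steps, and nuclei were counted after 5 days.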

Row | Cell Line | relative viability
1 | A-427 | 0.975
2 | NCI-H441 | 0.47
3 | NCI-H661 | 0.883
4 | NCI-H1734 | 0.872
5 | NCI-H460 | 1.01
6 | NCI-H2347 | 0.644
7 | SK-LU-1 | 1.08
8 | 201T | 1.1
9 | NCI-H1915 | 0.982

same assay, conditions: first compound 0.03162 µM

Row | Cell Line | relative viability
10 | SW 1573 | 0.946
11 | NCI-H838 | 0.971
12 | LCLC-103H | 1.12
13 | NCI-H520 | 0.887
14 | NCI-H2126 | 1.13
15 | EMC-BAC-2 | 1
16 | NCI-H2085 | 1.02
17 | HCC-366 | 1.05
18 | NCI-H1666 | 0.678
19 | NCI-H596 | 0.956
20 | NCI-H2087 | 0.873
21 | H3255 | 0.679
22 | COR-L23 | 0.961
23 | COR-L 105 | 0.783
24 | LOU-NH91 | 0.344
25 | ChaGo-K-1 | 0.795
26 | NCI-H2405 | 0.897

Row | Cell Line | relative viability
27 | HOP-62 | 0.615
28 | LU99A | 1.29
29 | BEN | 0.803
30 | HARA | 1.14
31 | HCC-78 | 0.513
32 | NCI-H322M | 1.18
33 | LCLC-97TM1 | 0.383
34 | NCI-H2009 | 0.944
35 | A-427 | 0.991
36 | NCI-H441 | 0.451
37 | NCI-H661 | 0.75
38 | NCI-H1734 | 0.965
39 | NCI-H460 | 1.26
40 | NCI-H2347 | 0.861
41 | SK-LU-1 | 1.08
42 | 201T | 1.14
43 | NCI-H1915 | 1.01

same assay, conditions: first compound 0.1 µM

Row | Cell Line | relative viability
44 | SW 1573 | 0.864
45 | NCI-H838 | 0.945
46 | LCLC-103H | 1.08
47 | NCI-H520 | 0.529
48 | NCI-H2126 | 1.08
49 | EMC-BAC-2 | 0.996
50 | NCI-H2085 | 1.03
51 | HCC-366 | 0.913
52 | NCI-H1666 | 0.869
53 | NCI-H596 | 0.969
54 | NCI-H2087 | 0.655
55 | H3255 | 0.83
56 | COR-L23 | 0.97
57 | COR-L 105 | 1
58 | LOU-NH91 | 0.481
59 | ChaGo-K-1 | 1.01
60 | NCI-H2405 | 0.91

Row | Cell Line | relative viability
61 | HOP-62 | 0.803
62 | LU99A | 1.04
63 | BEN | 0.661
64 | HARA | 1.08
65 | HCC-78 | 0.503
66 | NCI-H322M | 1.26
67 | LCLC-97TM1 | 0.794
68 | NCI-H2009 | 1.05
69 | A-427 | 1.08
70 | NCI-H441 | 0.459
71 | NCI-H661 | 0.739
72 | NCI-H1734 | 0.875
73 | NCI-H460 | 1.13
74 | SK-LU-1 | 0.707
75 | 201T | 1.1
76 | NCI-H1915 | 0.904

same assay, conditions: first compound 0.3162 µM

Row | Cell Line | relative viability
77 | SW 1573 | 0.908
78 | NCI-H838 | 0.545
79 | LCLC-103H | 1.07
80 | NCI-H520 | 0.249
81 | NCI-H2126 | 1.09
82 | EMC-BAC-2 | 1.06
83 | NCI-H2085 | 1.03
84 | HCC-366 | 1.01
85 | NCI-H1666 | 0.762
86 | NCI-H596 | 1.38
87 | NCI-H2087 | 0.766
88 | H3255 | 0.788
89 | COR-L23 | 0.884
90 | COR-L 105 | 0.693
91 | LOU-NH91 | 0.448
92 | ChaGo-K-1 | 0.99
93 | NCI-H2405 | 0.929

Row | Cell Line | relative viability
94 | HOP-62 | 0.376
95 | LU99A | 1.04
96 | BEN | 0.73
97 | HARA | 1.07
98 | HCC-78 | 0.498
99 | NCI-H322M | 1.19
100 | LCLC-97TM1 | 0.459
101 | NCI-H2009 | 1.03
102 | A-427 | 1.01
103 | NCI-H441 | 0.288
104 | NCI-H661 | 0.972
105 | NCI-H1734 | 0.344
106 | NCI-H460 | 1.04
107 | NCI-H2347 | 0.888
108 | SK-LU-1 | 0.992
109 | 201T | 1.07
110 | NCI-H1915 | 0.975

same assay, conditions: first compound 1 µM

Row | Cell Line | relative viability
111 | SW 1573 | 0.646
112 | NCI-H838 | 0.655
113 | LCLC-103H | 0.937
114 | NCI-H520 | 0.399
115 | NCI-H2126 | 1.1
116 | EMC-BAC-2 | 1.07
117 | NCI-H2085 | 1.05
118 | HCC-366 | 1.12
119 | NCI-H1666 | 0.841
120 | NCI-H596 | 0.999
121 | NCI-H2087 | 0.774
122 | H3255 | 0.688
123 | COR-L23 | 0.938
124 | COR-L 105 | 0.763
125 | LOU-NH91 | 0.47
126 | ChaGo-K-1 | 0.954
127 | NCI-H2405 | 0.967

Row | Cell Line | relative viability
128 | HOP-62 | 0.922
129 | LU99A | 1.08
130 | BEN | 0.696
131 | HARA | 1.11
132 | HCC-78 | 0.527
133 | NCI-H322M | 1.19
134 | LCLC-97TM1 | 0.522
135 | NCI-H2009 | 0.958
136 | A-427 | 1.01
137 | NCI-H441 | 0.449
138 | NCI-H661 | 0.855
139 | NCI-H1734 | 0.648
140 | NCI-H460 | 1.12
141 | NCI-H2347 | 0.933
142 | SK-LU-1 | 1.22
143 | 201T | 1.09
144 | NCI-H1915 | 0.921

compound: CCn1c(-c2nonc2N)nc2c(C#CC(C)(C)O)ncc(OC[C@H]3CCCNC3)c21 + Cc1nc(Nc2ncc(C(=O)Nc3c(C)cccc3Cl)s2)cc(N2CCN(CCO)CC2)n1 [Dasatinib] (partner 0.075 µM); experiment: as above; settings: first compound 0.01 µM
Method in brief: as §1

Row | Cell Line | relative viability
145 | SW 1573 | 0.377
146 | NCI-H838 | 0.29
147 | LCLC-103H | 0.381
148 | NCI-H520 | 0.223
149 | NCI-H2126 | 0.587
150 | EMC-BAC-2 | 0.302
151 | NCI-H2085 | 0.21
152 | HCC-366 | 0.597
153 | NCI-H1666 | 0.847
154 | NCI-H596 | 0.641
155 | NCI-H2087 | 0.738
156 | H3255 | 0.323
157 | COR-L23 | 0.521
158 | COR-L 105 | 0.365
159 | LOU-NH91 | 0.564
160 | ChaGo-K-1 | 0.621
